{
  "source": "PubChem BioAssay AID1845211",
  "about": "(Molecular Pharmacology Branch, DTP, NCI, 2023)",
  "system": "NCI-H322M multicellular tumor spheroids, viability (% test/control)",
  "experiment": "Anticancer human tumor NCI-H322M cell line growth inhibition;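 on viability, T/C: spheroids exposed to compound for seven days before readout; 100% = DMSO vehicle control wells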",
  "conditions": "for viability, T/C: stronger effect = lower value",
  "summary_of_the_method": "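Complex tumor spheroids combined malignant cells with endothelial cells and mesenchymal stem cells. DNA-damaging drugs and DNA repair inhibitors were tested alone and in combination, at half-log dilutions down from clinical Cmax (top 10 microM if Cmax unknown), 0.25% DMSO final.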",
  "note": "Several values for one entry are separate records, joined by “and”; a condition that tells them apart may be missing. Identical values can stand only once.",
  "data": [
    {"smiles": "Cc1cc(C)c(CNC(=O)c2cc(-c3ccc(CN4CCOCC4)cc3)cc3c2cnn3C2CCCC2)c(=O)[nH]1", "values": [
      {"measurement": "viability, T/C", "setting": "compound 0.0316 µM", "result": "93.2% and 96.5% and 81.3%"},
      {"measurement": "viability, T/C", "setting": "compound 0.1 µM", "result": "101% and 84.8% and 89%"},
      {"measurement": "viability, T/C", "setting": "compound 0.316 µM", "result": "90.7% and 96.1% and 79.9%"},
      {"measurement": "viability, T/C", "setting": "compound 1 µM", "result": "101% and 88.8% and 98.1%"},
      {"measurement": "viability, T/C", "setting": "compound 3.16 µM", "result": "96.1% and 117% and 84.2%"},
      {"measurement": "viability, T/C", "setting": "compound 10 µM", "result": "117% and 114% and 102%"},
      {"measurement": "IC50", "setting": "curve of compound", "result": "> 10", "unit": "µM"}
    ]},
    {"smiles": "CC(C)n1c(=O)n(C)c2cnc3cc(F)c(-c4ccc(OCCCN5CCCCC5)nc4)cc3c21", "values": [
      {"measurement": "viability, T/C", "setting": "compound 0.0316 µM", "result": "60.1% and 96% and 88.1%"},
      {"measurement": "viability, T/C", "setting": "compound 0.1 µM", "result": "80.2% and 82.2% and 112%"},
      {"measurement": "viability, T/C", "setting": "compound 0.316 µM", "result": "70.4% and 78.7% and 83.2%"},
      {"measurement": "viability, T/C", "setting": "compound 1 µM", "result": "73.2% and 102% and 112%"},
      {"measurement": "viability, T/C", "setting": "compound 3.16 µM", "result": "76.8% and 85.2% and 87.2%"},
      {"measurement": "viability, T/C", "setting": "compound 10 µM", "result": "56.8% and 79.3% and 85%"},
      {"measurement": "IC50", "setting": "curve of compound", "result": "> 10", "unit": "µM"}
    ]},
    {"smiles": "O=C(c1cc(Cc2n[nH]c(=O)c3ccccc23)ccc1F)N1CCN(C(=O)C2CC2)CC1", "note": "+ COc1cc2c(cc1O)CCNC21CSC2c3c(OC(C)=O)c(C)c4c(c3C(COC1=O)N1C(O)C3Cc5cc(C)c(OC)c(O)c5C(C21)N3C)OCO4", "values": [
      {"measurement": "IC50", "setting": "curve of first compound, second compound 30 pM", "result": "> 30", "unit": "µM"},
      {"measurement": "IC50", "setting": "curve of first compound, second compound 94.9 pM", "result": "> 30", "unit": "µM"},
      {"measurement": "IC50", "setting": "curve of first compound, second compound 0.0003 µM", "result": "> 30", "unit": "µM"},
      {"measurement": "IC50", "setting": "curve of first compound, second compound 0.000949 µM", "result": 20.8, "unit": "µM"},
      {"measurement": "IC50", "setting": "curve of first compound, second compound 0.003 µM", "result": "< 0.0949", "unit": "µM"},
      {"measurement": "viability, T/C", "setting": "second compound 30 pM, first compound 0.0949 µM", "result": 81.3, "unit": "%"},
      {"measurement": "viability, T/C", "setting": "second compound 30 pM, first compound 0.3 µM", "result": 84.3, "unit": "%"},
      {"measurement": "viability, T/C", "setting": "second compound 30 pM, first compound 0.949 µM", "result": 90.6, "unit": "%"},
      {"measurement": "viability, T/C", "setting": "second compound 30 pM, first compound 3 µM", "result": 79.8, "unit": "%"},
      {"measurement": "viability, T/C", "setting": "second compound 30 pM, first compound 9.49 µM", "result": 85.8, "unit": "%"},
      {"measurement": "viability, T/C", "setting": "second compound 30 pM, first compound 30 µM", "result": 110, "unit": "%"},
      {"measurement": "viability, T/C", "setting": "second compound 94.9 pM, first compound 0.0949 µM", "result": 90.7, "unit": "%"},
      {"measurement": "viability, T/C", "setting": "second compound 94.9 pM, first compound 0.3 µM", "result": 84.9, "unit": "%"},
      {"measurement": "viability, T/C", "setting": "second compound 94.9 pM, first compound 0.949 µM", "result": 88.5, "unit": "%"},
      {"measurement": "viability, T/C", "setting": "second compound 94.9 pM, first compound 3 µM", "result": 87.5, "unit": "%"},
      {"measurement": "viability, T/C", "setting": "second compound 94.9 pM, first compound 9.49 µM", "result": 79.4, "unit": "%"},
      {"measurement": "viability, T/C", "setting": "second compound 94.9 pM, first compound 30 µM", "result": 98.5, "unit": "%"},
      {"measurement": "viability, T/C", "setting": "second compound 0.0003 µM, first compound 0.0949 µM", "result": 99.6, "unit": "%"},
      {"measurement": "viability, T/C", "setting": "second compound 0.0003 µM, first compound 0.3 µM", "result": 84.7, "unit": "%"},
      {"measurement": "viability, T/C", "setting": "second compound 0.0003 µM, first compound 0.949 µM", "result": 79.9, "unit": "%"},
      {"measurement": "viability, T/C", "setting": "second compound 0.0003 µM, first compound 3 µM", "result": 83.3, "unit": "%"},
      {"measurement": "viability, T/C", "setting": "second compound 0.0003 µM, first compound 9.49 µM", "result": 79.8, "unit": "%"},
      {"measurement": "viability, T/C", "setting": "second compound 0.0003 µM, first compound 30 µM", "result": 95.9, "unit": "%"},
      {"measurement": "viability, T/C", "setting": "second compound 0.000949 µM, first compound 0.0949 µM", "result": 83.4, "unit": "%"},
      {"measurement": "viability, T/C", "setting": "second compound 0.000949 µM, first compound 0.3 µM", "result": 77.7, "unit": "%"},
      {"measurement": "viability, T/C", "setting": "second compound 0.000949 µM, first compound 0.949 µM", "result": 69.5, "unit": "%"},
      {"measurement": "viability, T/C", "setting": "second compound 0.000949 µM, first compound 3 µM", "result": 72.7, "unit": "%"},
      {"measurement": "viability, T/C", "setting": "second compound 0.000949 µM, first compound 9.49 µM", "result": 67.6, "unit": "%"},
      {"measurement": "viability, T/C", "setting": "second compound 0.000949 µM, first compound 30 µM", "result": 42.2, "unit": "%"},
      {"measurement": "viability, T/C", "setting": "second compound 0.003 µM, first compound 0.0949 µM", "result": 11.3, "unit": "%"},
      {"measurement": "viability, T/C", "setting": "second compound 0.003 µM, first compound 0.3 µM", "result": 14.1, "unit": "%"},
      {"measurement": "viability, T/C", "setting": "second compound 0.003 µM, first compound 0.949 µM", "result": 8.06, "unit": "%"},
      {"measurement": "viability, T/C", "setting": "second compound 0.003 µM, first compound 3 µM", "result": 7.88, "unit": "%"},
      {"measurement": "viability, T/C", "setting": "second compound 0.003 µM, first compound 9.49 µM", "result": 4.62, "unit": "%"},
      {"measurement": "viability, T/C", "setting": "second compound 0.003 µM, first compound 30 µM", "result": 1.81, "unit": "%"}
    ]},
    {"smiles": "Cn1ncnc1[C@H]1c2n[nH]c(=O)c3cc(F)cc(c23)N[C@@H]1c1ccc(F)cc1", "values": [
      {"measurement": "viability, T/C", "setting": "compound 0.00949 µM", "result": "90.1% and 93.2% and 85.8%"},
      {"measurement": "viability, T/C", "setting": "compound 0.03 µM", "result": "88.6% and 91.6% and 90.2%"},
      {"measurement": "viability, T/C", "setting": "compound 0.0949 µM", "result": "79.9% and 77.7% and 81%"},
      {"measurement": "viability, T/C", "setting": "compound 0.3 µM", "result": "95.3% and 83.4% and 83%"},
      {"measurement": "viability, T/C", "setting": "compound 0.949 µM", "result": "81.9% and 79.7% and 75.5%"},
      {"measurement": "viability, T/C", "setting": "compound 3 µM", "result": "70% and 66.2% and 68.7%"},
      {"measurement": "IC50", "setting": "curve of compound", "result": "> 3", "unit": "µM"}
    ]},
    {"smiles": "Cn1nnc2c(C(N)=O)ncn2c1=O", "values": [
      {"measurement": "IC50", "setting": "compound alone, run of 12/02/2019", "result": "> 100", "unit": "µM"}
    ]}
  ]
}
